This passage reports EC50 results from US10336739B2, “4-hydroxy-3-(heteroaryl)pyridine-2-one APJ agonists” (BRISTOL-MYERS SQUIBB COMPANY, priority 2015, dated 2019).

human APJ receptor, sequence (P35414 whole entry): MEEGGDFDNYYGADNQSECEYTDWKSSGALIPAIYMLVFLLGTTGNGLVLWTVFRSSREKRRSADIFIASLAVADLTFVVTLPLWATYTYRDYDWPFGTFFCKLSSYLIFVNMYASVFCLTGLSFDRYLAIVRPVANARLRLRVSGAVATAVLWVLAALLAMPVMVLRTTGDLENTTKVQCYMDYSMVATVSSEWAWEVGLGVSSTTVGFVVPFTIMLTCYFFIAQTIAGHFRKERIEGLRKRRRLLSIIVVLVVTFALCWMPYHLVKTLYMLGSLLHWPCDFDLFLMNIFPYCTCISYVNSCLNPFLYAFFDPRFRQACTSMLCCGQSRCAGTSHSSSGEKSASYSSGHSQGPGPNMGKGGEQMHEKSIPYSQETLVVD

One assay addresses human APJ receptor (Homo sapiens (Human), UniProt P35414). Briefly: Intracellular cAMP accumulation assay (APJ hcAMP, HTRF). Format: cell-based. As to conditions: HEK293 cells stably expressing human APJ receptor; inhibition of forskolin-mediated cAMP production; read-out: hAPJ cAMP EC50 Potency range. The method, boiled down:
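HEK293 cells stably expressing human APJ, 5,000 per well, exposed to compound with […] IBMX and 2 μM forskolin for 30 minutes at room temperature. cAMP measured by HTRF after lysis and 60 min detection incubation. EC50 from sigmoidal variable-slope fits of inhibition of forskolin-induced cAMP, quantified against a cAMP standard curve.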
Usually EC50 stands for the concentration that produces a half-maximal response. As for `CCOCc1[nH]c(=O)c(-c2nnc(Cc3ccc(Cl)nc3)o2)c(O)c1-c1c(OC)cccc1OC` [Example 110, 3-{5-[(6-chloropyridin-3-yl)methyl]-1,3,4-oxadiazol-2-yl}-5-(2,6-dimethoxyphenyl)-6-(ethoxymethyl) pyridine-2,4-diol], the concentration for a half-maximal effect (EC50) was in the range of 0.01 to 10 nM.
As to `CCCCc1nc(O)c(-c2nnc(Cc3nc(-c4ccccc4)no3)o2)c(O)c1-c1c(OC)cccc1OC` [Example 111, 6-butyl-5-(2,6-dimethoxyphenyl)-3-{5-[(3-phenyl-1,2,4-oxadiazol-5-yl)methyl]-1,3,4-oxadiazol-2-yl}pyridine-2,4-diol], the concentration giving a half-maximal response (EC50) was 0.01 to 10 nM.
Turning to `CCOCc1nc(O)c(-c2nnc(CN3CCCC3=O)o2)c(O)c1-c1c(OC)cccc1OC` [Example 112, 1-({5-[5-(2,6-dimethoxyphenyl)-6-(ethoxymethyl)-2,4-dihydroxypyridin-3-yl]-1,3,4-oxadiazol-2-yl}methyl) pyrrolidin-2-one], the 50% effective concentration (EC50) fell in the range of 0.01 to 10 nM.
On to `CCCCc1nc(O)c(-c2nnc(CN3C(=O)CNC3=O)o2)c(O)c1-c1c(OC)cccc1OC` [Example 113, 3-({5-[6-butyl-5-(2,6-dimethoxyphenyl)-2,4-dihydroxypyridin-3-yl]-1,3,4-oxadiazol-2-yl}methyl) imidazolidine-2,4-dione], for which the EC50 is 10 to 100 nM.
`CCCCc1nc(O)c(-c2nnc(Cn3ccccc3=O)o2)c(O)c1-c1c(OC)cccc1OC` [Example 114, 1-({5-[6-butyl-5-(2,6-dimethoxyphenyl)-2,4-dihydroxypyridin-3-yl]-1,3,4-oxadiazol-2-yl}methyl)-1,2-dihydropyridin-2-one]: the EC50 was 0.01 to 10 nM.
The same measure, in the same setting: the result for `CCCCc1nc(O)c(-c2nnc(Cn3ccnc3)o2)c(O)c1-c1c(OC)cccc1OC` [Example 115, 6-butyl-5-(2,6-dimethoxyphenyl)-3-[5-(1H-imidazol-1-ylmethyl)-1,3,4-oxadiazol-2-yl]pyridine-2,4-diol] reads 10 to 100 nM.
Take `CCCCc1nc(O)c(-c2nnc(CN3CCOCC3=O)o2)c(O)c1-c1c(OC)cccc1OC` [Example 117, 4-({5-[6-butyl-5-(2,6-dimethoxyphenyl)-2,4-dihydroxypyridin-3-yl]-1,3,4-oxadiazol-2-yl}methyl) morpholin-3-one]: the EC50 fell in the range of 0.01 to 10 nM.
Turning to `CCCCc1nc(O)c(-c2nnc(CC(=O)OC(C)(C)C)o2)c(O)c1-c1c(OC)cccc1OC` [Example 118, tert-butyl 2-{5-[6-butyl-5-(2,6-dimethoxyphenyl)-2,4-dihydroxypyridin-3-yl]-1,3,4-oxadiazol-2-yl}acetate], the EC50 was 0.01 to 10 nM.
In the case of `CCOCc1nc(O)c(-c2nnc(Cn3ccccc3=O)o2)c(O)c1-c1c(OC)cccc1OC` [Example 119, 1-({5-[5-(2,6-dimethoxyphenyl)-6-(ethoxymethyl)-2,4-dihydroxypyridin-3-yl]-1,3,4-oxadiazol-2-yl}methyl)-1,2-dihydropyridin-2-one], the half-maximal effective concentration (EC50) lay in the range of 0.01 to 10 nM.
For the compound `CCCCc1nc(O)c(-c2nnc(CNC(=O)OC(C)(C)C)o2)c(O)c1-c1c(OC)cccc1OC` [Example 120, tert-butyl N-({5-[6-butyl-5-(2,6-dimethoxyphenyl)-2,4-dihydroxypyridin-3-yl]-1,3,4-oxadiazol-2-yl}methyl) carbamate], the EC50 lay in the range of 10 to 100 nM.
The same measure, in the same setting: the result for `CCOCc1nc(O)c(-c2nnc(Cc3ccc(Cl)c(F)c3)o2)c(O)c1-c1c(OC)cccc1OC` [Example 122, 3-{5-[(4-chloro-3-fluorophenyl)methyl]-1,3,4-oxadiazol-2-yl}-5-(2,6-dimethoxyphenyl)-6-(ethoxymethyl) pyridine-2,4-diol] reads 0.01 to 10 nM; that for `CCOCc1nc(O)c(-c2nnc(Cc3ccc(Cl)cc3F)o2)c(O)c1-c1c(OC)cccc1OC` [Example 123, 3-{5-[(4-chloro-2-fluorophenyl)methyl]-1,3,4-oxadiazol-2-yl}-5-(2,6-dimethoxyphenyl)-6-(ethoxymethyl) pyridine-2,4-diol], 0.01 to 10 nM.
Still for that read-out and setting: in the case of `CCOCc1nc(O)c(-c2nnc(Cc3ccc(F)cn3)o2)c(O)c1-c1c(OC)cccc1OC` [Example 124, 5-(2,6-dimethoxyphenyl)-6-(ethoxymethyl)-3-{5-[(5-fluoropyridin-2-yl)methyl]-1,3,4-oxadiazol-2-yl}pyridine-2,4-diol] it was 0.01 to 10 nM.
For the compound `CCOCc1nc(O)c(-c2nnc(Cn3ccnc3)o2)c(O)c1-c1c(OC)cccc1OC` [Example 125, 5-(2,6-dimethoxyphenyl)-6-(ethoxymethyl)-3-[5-(1H-imidazol-1-ylmethyl)-1,3,4-oxadiazol-2-yl]pyridine-2,4-diol], the EC50 was 10 to 100 nM.
`CCOCc1nc(O)c(-c2nnc(Cc3ccc(C)c(F)c3)o2)c(O)c1-c1c(OC)cccc1OC` [Example 126, 5-(2,6-dimethoxyphenyl)-6-(ethoxymethyl)-3-{5-[(3-fluoro-4-methylphenyl)methyl]-1,3,4-oxadiazol-2-yl}pyridine-2,4-diol]: the EC50 lay in the range of 0.01 to 10 nM.
In the case of `CCOCc1nc(O)c(-c2nnc(Cc3ccc(Cl)cn3)o2)c(O)c1-c1c(OC)cccc1OC` [Example 127, 3-{5-[(5-chloropyridin-2-yl)methyl]-1,3,4-oxadiazol-2-yl}-5-(2,6-dimethoxyphenyl)-6-(ethoxymethyl) pyridine-2,4-diol], the EC50 lay in the range of 0.01 to 10 nM.
Regarding `CCOCc1nc(O)c(-c2nnc(Cn3ccc(-c4ccccc4)n3)o2)c(O)c1-c1c(OC)cccc1OC` [Example 128, 5-(2,6-dimethoxyphenyl)-6-(ethoxymethyl)-3-{5-[(3-phenyl-1H-pyrazol-1-yl)methyl]-1,3,4-oxadiazol-2-yl}pyridine-2,4-diol], the 50% effective concentration (EC50) lay in the range of 0.01 to 10 nM.
The same measure, in the same setting: in the case of `CCOCc1nc(O)c(-c2nnc(Cn3ccc(C(F)(F)F)n3)o2)c(O)c1-c1c(OC)cccc1OC` [Example 129, 5-(2,6-dimethoxyphenyl)-6-(ethoxymethyl)-3-(5-{[3-(trifluoromethyl)-1H-pyrazol-1-yl]methyl}-1,3,4-oxadiazol-2-yl)pyridine-2,4-diol] it was 10 to 100 nM.
On the same count and under the same terms, the result for `CCOCc1nc(O)c(-c2nnc(Cc3cnn(C)c3)o2)c(O)c1-c1c(OC)cccc1OC` [Example 130, 5-(2,6-dimethoxyphenyl)-6-(ethoxymethyl)-3-{5-[(1-methyl-1H-pyrazol-4-yl)methyl]-1,3,4-oxadiazol-2-yl}pyridine-2,4-diol] reads 10 to 100 nM; that for `CCOCc1nc(O)c(-c2nnc(Cc3ccc(F)nc3)o2)c(O)c1-c1c(OC)cccc1OC` [Example 131, 5-(2,6-dimethoxyphenyl)-6-(ethoxymethyl)-3-{5-[(6-fluoropyridin-3-yl)methyl]-1,3,4-oxadiazol-2-yl}pyridine-2,4-diol], 0.01 to 10 nM.

The same assay, now with this note: hAPJ cAMP EC50 Potency range (nM), HEK293 cells stably expressing human APJ receptor; inhibition of forskolin-mediated cAMP production.
Turning to `CCCCc1nc(O)c(-c2nnc(CN3CCOC3=O)o2)c(O)c1-c1c(OC)cccc1OC` [Example 116, 3-({5-[6-butyl-5-(2,6-dimethoxyphenyl)-2,4-dihydroxypyridin-3-yl]-1,3,4-oxadiazol-2-yl}methyl)-1,3-oxazolidin-2-one], the EC50 fell in the range of 0.01 to 10 nM.
The compound `CCCCc1nc(O)c(-c2nnc(CN(C)C(=O)OC(C)(C)C)o2)c(O)c1-c1c(OC)cccc1OC` [Example 121, tert-butyl N-({5-[6-butyl-5-(2,6-dimethoxyphenyl)-2,4-dihydroxypyridin-3-yl]-1,3,4-oxadiazol-2-yl}methyl)-N-methylcarbamate] registered a 50% effective concentration (EC50) of 10 to 100 nM.
